Results taken from publication PMC12040169 (PLOS Biology, 2025).

Key:
[1] = system: T1, CTL2-GFP (C. trachomatis L2/434/Bu, GFP-expressing); experiment: microbe, parasite or virus in culture; parameters: Intracellular C. trachomatis growth in HeLa cells, bulk GFP fluorescence relative to DMSO; conditions: Chlamydia trachomatis, HeLa, 28.5 h; bulk GFP, mean of 2; read-out: % of control remaining
T1 construct: L2/434/Bu, GFP-expressing
Description: MICs were calculated as described above.

[2] = system: T2, C. trachomatis L2/434/Bu expressing GFP (CTL2-GFP); experiment: microbe, parasite or virus in culture; parameters: C. trachomatis total inclusion area by high-content imaging, normalised to DMSO; conditions: Chlamydia trachomatis, HeLa, 28.5 h; total inclusion area; read-out: % of control remaining
T2 construct: L2/434/Bu GFP intracellular growth in HeLa cells
Outline: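 Screening measures GFP fluorescence from the reporter strain and resorufin fluorescence for host viability, with Hoechst-based imaging of fixed cells adding inclusion area, inclusion number and nuclei count per well.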

[3] = in vitro; parameters: Viability of infected HeLa host cells, resazurin conversion, bulk resorufin fluorescence relative to DMSO; conditions: human, hela cells; bulk resorufin, mean of 2
[4] = in vitro; conditions: human, hela cells, % viability

Structure (SMILES) | activity at 1 µM [1] [%] | activity at 5 µM [1] [%] | activity at 10 µM [1] [%] | activity at 1 µM [2] [%] | activity at 5 µM [2] [%] | activity at 10 µM [2] [%] | viability at 28.5 h, 1 µM [3] [%] | viability at 28.5 h, 5 µM [3] [%] | viability at 28.5 h, 10 µM [3] [%] | viability at 28.5 h, 10 µM [4] [%]
Clc1ccc2nc(-c3ccccn3)[nH]c2c1 [CBK000116] | 75 | 13.8 | 1.74 | 70.7 | 9.19 | 1.69 | 111 | 104 | 104 | 83.8
Nc1cccc2c(OCCO)cccc12 [CBK001976C] | 92.4 | 76.5 | 45.6 | 82.7 | 72.9 | 30.7 | 92.9 | 89 | 85.7 | 91.8
CC(NC(=O)N(Cc1ccccc1C(F)(F)F)CC(C)(C)CN)c1cccc2ccccc12 (stereo not drawn) [CBK002422C] | 112 | 51.5 | 34.5 | 78.4 | 41 | 12.2 | 90.1 | 94.1 | 101 | 91.9
COc1ccc(S(=O)(=O)Nc2ccc(S(=O)(=O)Nc3nccs3)cc2)c([N+](=O)[O-])c1 [CBK266801] | 13.9 | 4.96 | 0 | 26.3 | 5.01 | 1.27 | 110 | 123 | 119 | 
O=S(=O)(Nc1ncccn1)c1ccc(NC(=S)Nc2ccc3c(c2)OCO3)cc1 [CBK267046] | 54.3 | 10.7 | 12.9 | 88.8 | 21.2 | 18.3 | 114 | 121 | 119 | 
N=C(N)Nc1nc(-c2ccccc2)c2cc(F)ccc2n1 [CBK267350] | 93.6 | 64.3 | 16.8 | 90.4 | 64.6 | 12.8 | 107 | 111 | 105 | 
Cc1ccc(S(=O)(=O)Nc2ccc(S(=O)(=O)Nc3nccs3)cc2)c([N+](=O)[O-])c1 [CBK267410] | 17.1 | 7.21 | 1.76 | 23 | 5.7 | 1.86 | 110 | 97.6 | 98.2 | 
Cc1cc(C)c2nc(-c3ccccn3)cc(C(=O)Nc3ccc(S(=O)(=O)Nc4onc(C)c4C)cc3)c2c1 [CBK267775] | 95.8 | 105 | 66.8 | 115 | 111 | 74.8 | 100 | 94.8 | 98.6 | 
O=[N+]([O-])c1cc2c(cc1C(Nc1ccccn1)c1cc(Cl)c3cccnc3c1O)OCO2 (stereo not drawn) [CBK267795] | 109 | 82.9 | 79.7 | 94.3 | 40.8 | 25.9 | 95.1 | 98.7 | 93.2 | 
Oc1c(CN2CCN(c3ccc(F)cc3)CC2)cc(Br)c2cccnc12 [CBK268051] | 113 | 46.4 | 37.8 | 119 | 33 | 37.5 | 96.2 | 97.9 | 92.4 | 
CN(C)c1ccc(Nc2nc(NCCO)c3ccccc3n2)cc1 [CBK268392C] | 130 | 4.94 | 6.78 | 69.7 | 4.24 | 0.899 | 95.3 | 103 | 100 | 
Oc1ccccc1Nc1nc(NC2CCCC2)c2ccccc2n1 [CBK268402C] | 120 | 45.9 | 9.92 | 43.4 | 23.2 | 4.48 | 90.7 | 94.1 | 104 | 
